These results are taken from PMC2191575 (The Journal of Experimental Medicine, 1994).

Test [1] relates to chimeric human/mouse MHC class II molecules. In kind it is binding.
The test system of test [2] is chimeric MHC class II molecules on splenic B cells. Type of test: cell-based, mouse. The settings on record: overnight incubation of splenic B cells with recombinant IL-4; data not shown.

Take “OVA (323-339): a peptide that does not bind to DR4Dw4 (ISQAVHAAHAEINEAGR; UniProt P01012 324-340, looked up, fragment)”: the “binding to chimeric MHC class II molecules” value in test [1] is recorded as “Binding was not observed”.

For “myelin basic protein (90-102): DR-restricted synthetic peptide (HLIRLFSRDAPGR; UniProt P02686 90-102, looked up, fragment)”, the “binding to chimeric MHC class II molecules” value in test [1] is recorded as “Specific binding was also observed”.

B1: recombinant IL-4: recombinant IL-4 (protein, UniProt P07750 21-140, looked up)
Interleukin-4: HIHGCDKNHLREIIGILNEVTGEGTPCTEMDVPNVLTATKNTTESELVCRASKVLRIFYLKHGKTPCLKKNSSVLMELQRLFRAFRCLDSSISCTMNESKSTSLKDFLESLKSIMQMDYS
For B1, the “cell surface level of chimeric MHC class II molecules” value in test [2] is “increased by three- to fourfold”.
